Each compound was assayed against Histone deacetylase 2 (Homo sapiens, UniProt Q92769) (assay: Inhibition of full-length recombinant human C-terminal GST tagged HDAC2 expressed in Sf9 insect cells using aminoluciferin peptide substrate at 100 nM preincubated for 3 hrs followed by substrate addition and measured after 30 mins by HDAC-Glo I/II chemiluminescence assay). Conditions: time 3.5 hrs.
Histone deacetylase 2, sequence (Q92769 whole entry): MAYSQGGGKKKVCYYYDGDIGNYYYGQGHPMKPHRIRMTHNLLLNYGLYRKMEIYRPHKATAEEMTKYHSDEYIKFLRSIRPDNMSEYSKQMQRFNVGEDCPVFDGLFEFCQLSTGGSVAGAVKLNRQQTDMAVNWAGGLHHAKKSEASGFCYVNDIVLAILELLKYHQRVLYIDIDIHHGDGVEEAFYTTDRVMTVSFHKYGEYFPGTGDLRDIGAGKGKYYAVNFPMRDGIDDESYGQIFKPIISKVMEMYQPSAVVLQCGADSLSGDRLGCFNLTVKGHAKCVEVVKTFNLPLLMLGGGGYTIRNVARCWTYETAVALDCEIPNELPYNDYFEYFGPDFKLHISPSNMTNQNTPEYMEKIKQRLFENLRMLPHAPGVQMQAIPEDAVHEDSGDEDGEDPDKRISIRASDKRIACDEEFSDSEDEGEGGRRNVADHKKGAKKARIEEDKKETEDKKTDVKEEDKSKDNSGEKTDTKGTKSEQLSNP
`Nc1ccc(-c2cccs2)cc1NC(=O)CCc1cn(-c2ccc(Br)cc2)nn1` was tested, and the inhibition was 11%.
Work on `Nc1ccc(-c2cccnc2)cc1NC(=O)CCc1cn(CCc2ccccc2)nn1` yielded an inhibition of 23%.
With `Nc1ccc(-c2cccs2)cc1NC(=O)CCc1cn(CCC23CC4CC(CC(C4)C2)C3)nn1` the inhibition was 5%.
In the case of `Cc1cccc(CCn2cc(C(=O)Nc3cc(-c4ccccc4)ccc3N)nn2)c1`, the inhibition is reported as 1%.
In the case of `Nc1ccc(-c2ccccc2)cc1NC(=O)CCc1cn(Cc2ccc(-c3ccccc3)cc2)nn1`, the inhibition is reported as 0%.
Work on `Cc1ccc(CCn2cc(-c3cccc(C(=O)Nc4cc(-c5cccs5)ccc4N)c3)nn2)cc1` yielded an inhibition of 4%.
`Nc1ccc(-c2ccsc2)cc1NC(=O)c1cn(CCc2ccc(F)cc2)nn1` was tested, and the inhibition was 0%.
`Nc1ccc(-c2ccsc2)cc1NC(=O)CCc1cn(-c2ccc([N+](=O)[O-])cc2)nn1` was tested, and the inhibition was 0%.
Compound `Nc1ccc(-c2ccc(F)cc2)cc1NC(=O)CCc1cn(CC23CC4CC(CC(C4)C2)C3)nn1` has an inhibition of 0%.
For `Nc1ccc(-c2ccc(F)cc2)cc1NC(=O)CCc1cn(CCc2ccc(Cl)cc2)nn1`, the inhibition was 3%.
`Cc1ccc(CCn2cc(C(=O)Nc3cc(-c4ccc(F)cc4)ccc3N)nn2)cc1` gave an inhibition of 7%.
For `Nc1ccc(-c2ccccc2)cc1NC(=O)CCc1cn(CCCCCCC(=O)O)nn1`, the inhibition was 0%.
Compound `Cc1ccc(-n2cc(CCC(=O)Nc3cc(-c4ccc(F)cc4)ccc3N)nn2)cc1C` has an inhibition of 0%.
`Nc1ccc(-c2cccs2)cc1NC(=O)c1cn(CCCCCCCC(=O)O)nn1` showed an inhibition of 2%.
Compound `Nc1ccc(-c2cccs2)cc1NC(=O)c1ccc(-c2cn(CCc3cccc(Cl)c3)nn2)s1` has an inhibition of 6%.
In the case of `Cc1csc(CCn2cc(CCC(=O)Nc3cc(-c4cccs4)ccc3N)nn2)n1`, the inhibition is reported as 30%.
With `Nc1ccc(-c2ccccc2)cc1NC(=O)c1cn(CCc2ccc(C(F)(F)F)cc2)nn1` the inhibition was 0%.
`Nc1ccc(-c2ccc(F)cc2)cc1NC(=O)CCc1cn(-c2ccc(I)cc2)nn1` gave an inhibition of 0%.
In the case of `Nc1ccc(-c2cccs2)cc1NC(=O)c1cccc(-c2cn(CC(=O)c3ccccc3)nn2)c1`, the inhibition is reported as 7%.
For `COc1ccccc1CCn1cc(CCC(=O)Nc2cc(-c3cccs3)ccc2N)nn1`, the inhibition was 12%.
`Nc1ccc(-c2cccs2)cc1NC(=O)c1cn(CCN2CCc3ccccc3C2)nn1` gave an inhibition of 18%.
Work on `Nc1ccc(-c2cccnc2)cc1NC(=O)CCc1cn(CCc2ccccn2)nn1` yielded an inhibition of 0%.
For `Nc1ccc(-c2cccs2)cc1NC(=O)c1cccc(-c2cn(CCC3CCCCC3)nn2)c1`, the inhibition was 0%.
With `Nc1ccc(-c2ccc(F)cc2)cc1NC(=O)c1cn(C[S+]([O-])c2ccccc2)nn1` (centres undefined) the inhibition was 0%.
`Nc1ccc(-c2ccsc2)cc1NC(=O)CCc1cn(CCCCCCC(=O)O)nn1` showed an inhibition of 0%.
With `Cc1ccc(CCn2cc(CCC(=O)Nc3cc(-c4ccc(F)cc4)ccc3N)nn2)cc1` the inhibition was 25%.
`Nc1ccc(-c2ccsc2)cc1NC(=O)CCc1cn(CCc2ccsc2)nn1` was tested, and the inhibition was 19%.
With `Nc1ccc(-c2cccs2)cc1NC(=O)CCc1cn(-c2ccccc2-c2ccccc2)nn1` the inhibition was 0%.
In the case of `Nc1ccc(-c2cccnc2)cc1NC(=O)CCc1cn(Cc2ccc(Oc3ccccc3)cc2)nn1`, the inhibition is reported as 0%.
For `Nc1ccc(-c2cccs2)cc1NC(=O)CCc1cn(-c2ccc([N+](=O)[O-])cc2)nn1`, the inhibition was 15%.
With `Nc1ccc(-c2cccs2)cc1NC(=O)CCc1cn(CCc2ccc(Cl)cc2)nn1` the inhibition was 24%.
Compound `Cc1cccc(CCn2cc(CCC(=O)Nc3cc(-c4cccs4)ccc3N)nn2)c1` has an inhibition of 24%.
Compound `Nc1ccc(-c2ccsc2)cc1NC(=O)c1cn(CCC2CCCC2)nn1` has an inhibition of 0%.
Work on `Nc1ccc(-c2cccs2)cc1NC(=O)c1cccc(-c2cn(Cc3cccc(-c4ccccc4)c3)nn2)c1` yielded an inhibition of 0%.
In the case of `Nc1ccc(-c2ccsc2)cc1NC(=O)c1cn(C[S+]([O-])c2ccccc2)nn1` (centres undefined), the inhibition is reported as 10%.
Work on `Nc1ccc(-c2ccsc2)cc1NC(=O)c1cn(CCc2cccc(C(F)(F)F)c2)nn1` yielded an inhibition of 0%.
`Nc1ccc(-c2cccs2)cc1NC(=O)c1cccc(-c2cn(CC3CCCCC3)nn2)c1` showed an inhibition of 0%.
In the case of `Nc1ccc(-c2ccc(F)cc2)cc1NC(=O)CCc1cn(CC2CCCCC2)nn1`, the inhibition is reported as 1%.
`Nc1ccc(-c2ccccc2)cc1NC(=O)c1cn(CCc2cccc(-c3ccccc3)c2)nn1` gave an inhibition of 0%.
Compound `Nc1ccc(-c2ccsc2)cc1NC(=O)CCc1cn(CCC2CCCCC2)nn1` has an inhibition of 0%.
For `Nc1ccc(-c2ccsc2)cc1NC(=O)CCc1cn(C[S+]([O-])c2ccccc2)nn1` (centres undefined), the inhibition was 8%.
`CCc1ccc(Cn2cc(CCC(=O)Nc3cc(-c4cccnc4)ccc3N)nn2)cc1` gave an inhibition of 5%.
Compound `Nc1ccc(-c2cccs2)cc1NC(=O)c1cccc(-c2cn(CCc3cccc(Cl)c3)nn2)c1` has an inhibition of 0%.
In the case of `Nc1ccc(-c2cccs2)cc1NC(=O)CCc1cn(CCCCCCC(=O)O)nn1`, the inhibition is reported as 9%.
Compound `Nc1ccc(-c2cccs2)cc1NC(=O)c1ccc(-c2cn(CCc3cccc(F)c3)nn2)s1` has an inhibition of 24%.
For `COc1ccccc1CCn1cc(CCC(=O)Nc2cc(-c3ccsc3)ccc2N)nn1`, the inhibition was 20%.
`Nc1ccc(-c2cccs2)cc1NC(=O)c1cn(CCc2ccccc2C(F)(F)F)nn1` was tested, and the inhibition was 5%.
In the case of `Nc1ccc(-c2ccsc2)cc1NC(=O)c1cn(CCCCCC(=O)O)nn1`, the inhibition is reported as 0%.
Compound `COc1ccccc1CCn1cc(CCC(=O)Nc2cc(-c3cccnc3)ccc2N)nn1` has an inhibition of 10%.
For `Nc1ccc(-c2cccs2)cc1NC(=O)CCc1cn(CCN2CCOCC2)nn1`, the inhibition was 1%.
For `Nc1ccc(-c2cccs2)cc1NC(=O)c1cccc(-c2cn(CCc3ccccn3)nn2)c1`, the inhibition was 33%.
Work on `Nc1ccc(-c2ccc(F)cc2)cc1NC(=O)c1cn(CCc2ccc([N+](=O)[O-])cc2)nn1` yielded an inhibition of 12%.
In the case of `Nc1ccc(-c2cccs2)cc1NC(=O)c1cccc(-c2cn(Cc3ccc(OC(F)(F)F)cc3)nn2)c1`, the inhibition is reported as 0%.
For `Nc1ccc(-c2cccs2)cc1NC(=O)c1ccc(-c2cn(Cc3ccc(C(=O)O)cc3)nn2)s1`, the inhibition was 61%.
Compound `Nc1ccc(-c2ccccc2)cc1NC(=O)CCc1cn(CCc2ccsc2)nn1` has an inhibition of 0%.
Compound `Nc1ccc(-n2cc(-c3ccc(C(=O)Nc4cc(-c5cccs5)ccc4N)cc3)nn2)cc1` has an inhibition of 51%.
Compound `Nc1ccc(-c2ccsc2)cc1NC(=O)CCc1cn(CCc2ccccc2Cl)nn1` has an inhibition of 11%.
For `Nc1ccc(-c2cccs2)cc1NC(=O)c1cccc(-c2cn(Cc3ccc4ccccc4n3)nn2)c1`, the inhibition was 4%.
Work on `Nc1ccc(-c2ccccc2)cc1NC(=O)CCc1cn(Cc2cccc(C(=O)O)c2)nn1` yielded an inhibition of 0%.
With `Nc1ccc(-c2ccsc2)cc1NC(=O)c1cn(CC(=O)c2ccccc2)nn1` the inhibition was 0%.
For `Nc1ccc(-c2cccs2)cc1NC(=O)c1ccc(-c2cn(CCCCCC(=O)O)nn2)cc1`, the inhibition was 9%.
In the case of `Nc1ccc(-c2ccccc2)cc1NC(=O)CCc1cn(CCc2ccccc2)nn1`, the inhibition is reported as 24%.
Work on `Cc1ccccc1CCn1cc(-c2ccc(C(=O)Nc3cc(-c4cccs4)ccc3N)s2)nn1` yielded an inhibition of 14%.
`Nc1ccc(-c2cccnc2)cc1NC(=O)CCc1cn(CC(=O)Nc2ccc(F)cc2)nn1` gave an inhibition of 0%.
`Nc1ccc(-c2ccsc2)cc1NC(=O)CCc1cn(CC23CC4CC(CC(C4)C2)C3)nn1` gave an inhibition of 0%.
In the case of `Nc1ccc(-c2ccc(F)cc2)cc1NC(=O)c1cn(CCCc2ccccc2)nn1`, the inhibition is reported as 21%.
`Cc1cccc(CCn2cc(CCC(=O)Nc3cc(-c4ccccc4)ccc3N)nn2)c1` gave an inhibition of 27%.
Compound `Nc1ccc(-c2ccccc2)cc1NC(=O)CCc1cn(CCC2CCCCC2)nn1` has an inhibition of 0%.
With `Nc1ccc(-c2ccccc2)cc1NC(=O)CCc1cn(CCc2ccc(Cl)cc2)nn1` the inhibition was 0%.
